In assay [1] the target is T1, Androgen receptor (Homo sapiens) (UniProt P10275).
T1 sequence (whole entry): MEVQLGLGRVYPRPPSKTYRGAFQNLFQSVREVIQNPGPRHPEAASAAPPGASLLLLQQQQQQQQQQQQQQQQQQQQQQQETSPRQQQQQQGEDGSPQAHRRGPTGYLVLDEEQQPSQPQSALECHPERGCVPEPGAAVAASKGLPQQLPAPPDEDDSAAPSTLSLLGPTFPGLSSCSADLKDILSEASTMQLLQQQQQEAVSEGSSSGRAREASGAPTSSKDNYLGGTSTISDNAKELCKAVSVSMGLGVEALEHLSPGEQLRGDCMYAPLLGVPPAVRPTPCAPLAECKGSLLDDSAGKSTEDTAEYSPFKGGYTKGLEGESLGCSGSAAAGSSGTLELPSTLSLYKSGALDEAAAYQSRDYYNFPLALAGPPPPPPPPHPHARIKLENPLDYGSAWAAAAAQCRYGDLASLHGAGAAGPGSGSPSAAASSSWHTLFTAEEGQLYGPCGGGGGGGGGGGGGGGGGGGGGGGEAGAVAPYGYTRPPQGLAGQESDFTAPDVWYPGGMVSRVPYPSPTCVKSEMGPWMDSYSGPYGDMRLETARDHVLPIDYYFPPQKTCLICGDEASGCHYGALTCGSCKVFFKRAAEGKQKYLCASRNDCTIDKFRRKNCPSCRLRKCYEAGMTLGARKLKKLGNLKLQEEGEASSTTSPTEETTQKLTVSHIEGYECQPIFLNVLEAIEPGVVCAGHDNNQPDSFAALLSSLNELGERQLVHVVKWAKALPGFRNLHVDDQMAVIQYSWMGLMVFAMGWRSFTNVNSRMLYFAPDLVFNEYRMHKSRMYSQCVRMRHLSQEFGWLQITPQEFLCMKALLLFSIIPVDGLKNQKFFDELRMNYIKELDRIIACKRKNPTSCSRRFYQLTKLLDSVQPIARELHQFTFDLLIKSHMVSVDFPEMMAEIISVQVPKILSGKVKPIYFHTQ
The following applies: at 10 µM.
Description: Antagonist activity at androgen receptor (unknown origin) expressed in COS-7 cells assessed as inhibition of R1881-induced MMTV promoter activity at 10 uM by luciferase reporter gene assay relative to control

Assay [2] in a line: Antiproliferative activity against human LNCaP-hr cells expressing AR T877A mutant after 3 days by MTT assay. It counts as functional, cell-based. The settings on record: 72 h.
A further assay concerns DU-145. The assay is described as follows: Antiproliferative activity against AR negative human DU145 cells after 3 days by MTT assay. It counts as functional, cell-based. The settings on record: DU-145, 72 h.
Assay [3] can be described thus: Displacement of Fluormone-AL green from rat GST/His-tagged AR LBD mutant after 4 hrs by Fluorescence polarization assay. In general terms: Fluorescence polarisation rises when a labelled molecule tumbles more slowly, as on binding a larger partner.
The test system of assay [4] is Androgen receptor (Homo sapiens), P10275 [T878A]. The settings on record: at 10 µM.
Androgen receptor (Homo sapiens), P10275 [T878A], sequence (P10275 whole entry T878A): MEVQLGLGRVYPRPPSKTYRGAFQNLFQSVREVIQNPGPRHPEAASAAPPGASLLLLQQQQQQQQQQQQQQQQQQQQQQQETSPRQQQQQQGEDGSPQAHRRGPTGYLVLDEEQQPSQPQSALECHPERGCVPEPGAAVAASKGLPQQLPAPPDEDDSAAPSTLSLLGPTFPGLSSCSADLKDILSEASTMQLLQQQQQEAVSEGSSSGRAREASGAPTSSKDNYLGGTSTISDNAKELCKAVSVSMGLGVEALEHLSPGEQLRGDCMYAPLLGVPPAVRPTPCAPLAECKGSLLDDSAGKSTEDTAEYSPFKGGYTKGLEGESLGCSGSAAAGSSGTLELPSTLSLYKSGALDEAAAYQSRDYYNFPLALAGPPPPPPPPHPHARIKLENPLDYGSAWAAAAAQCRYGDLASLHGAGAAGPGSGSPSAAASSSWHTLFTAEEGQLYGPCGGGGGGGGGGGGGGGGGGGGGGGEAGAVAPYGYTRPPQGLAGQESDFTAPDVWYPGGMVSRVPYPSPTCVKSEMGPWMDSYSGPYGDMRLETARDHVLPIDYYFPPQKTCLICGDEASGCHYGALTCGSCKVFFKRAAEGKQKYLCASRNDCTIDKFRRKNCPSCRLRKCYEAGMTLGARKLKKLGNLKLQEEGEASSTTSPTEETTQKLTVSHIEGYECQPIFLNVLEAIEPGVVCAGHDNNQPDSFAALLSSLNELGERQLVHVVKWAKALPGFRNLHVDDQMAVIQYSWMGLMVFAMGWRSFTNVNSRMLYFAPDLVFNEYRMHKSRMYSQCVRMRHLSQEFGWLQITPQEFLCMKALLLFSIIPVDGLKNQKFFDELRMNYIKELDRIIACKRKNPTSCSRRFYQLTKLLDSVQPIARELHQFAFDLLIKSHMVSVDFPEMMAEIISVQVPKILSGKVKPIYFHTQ
Description: Inhibition of R1881-induced AR T877A mutant nuclear translocation in human LNCAP cells assessed as reduction in ratio of nuclear to cytoplasmic AR levels at 10 uM after 12 hrs by DAPI-staining based fluorescent microscopy

Active and inactive are the calls of the source. The rule behind the calls is not given here.

In general, inhibition refers to how much of the control response was suppressed. As usually defined, the IC50 is the concentration that inhibits the measured activity by half. In the case of `N#Cc1ccc(N2C(=O)C3CCCN3C2=S)cc1C(F)(F)F` (configuration not stated), the inhibition in assay [1] amounted to 32%. In addition, the IC50 in assay [2] was 87.7 µM; with DU-145, over 200 µM.
As for `N#Cc1ccc(N2C(=O)C3Cc4ccc(Br)cc4N3C2=S)cc1C(F)(F)F` (configuration not stated), the inhibition in assay [1] worked out at 68.3%. Further, the IC50 in assay [2] was 30.4 µM; with DU-145 it was over 200 µM; in assay [3], 2.98 µM.
The compound `N#Cc1ccc(N2C(=O)C3Cc4ccc(N)cc4N3C2=S)cc1C(F)(F)F` (configuration not stated) returned an inhibition in assay [1] of 29%. Further, the IC50 was 32.6 µM in assay [2] and 67 µM in the assay with DU-145.
Take `N#Cc1ccc(N2C(=O)C3Cc4ccc(C(=O)NCCO)cc4N3C2=S)cc1C(F)(F)F` (configuration not stated): the inhibition in assay [1] was 37%. For the same compound, the figures for the IC50 (in assay [2]; with DU-145) were 25.8 µM and 175 µM, respectively.
Consider `N#Cc1ccc(N2C(=O)C3Cc4ccccc4N3C2=S)cc1C(F)(F)F` (configuration not stated), for which the IC50 in assay [2] was found to be 15.3 µM; in the assay on DU-145, 143 µM.
Consider `CC(C)CNC(=O)c1cc2c(cc1F)N1C(=S)N(c3ccc(C#N)c(C(F)(F)F)c3)C(=O)C1C2` (configuration not stated), for which the inhibition result in assay [1] was “inactive”. Besides, the IC50 in assay [2] was 70.7 µM; with DU-145, over 200 µM.
Compound `N#Cc1ccc(N2C(=O)C3CC(O)CN3C2=S)cc1C(F)(F)F` (configuration not stated) registered an inhibition in assay [1] of 1.9%. In addition, the IC50 in assay [2] was 52.6 µM; in the assay with DU-145, over 200 µM.
On to `CCCCNC(=O)c1cc2c(cc1F)N1C(=S)N(c3ccc(C#N)c(C(F)(F)F)c3)C(=O)C1C2` (configuration not stated), for which the inhibition entry in assay [1] was “inactive”. Besides, the IC50 worked out at 67.3 µM in assay [2] and 175 µM in the assay with DU-145.
The matching figures for `N#Cc1ccc(N2C(=O)C3Cc4cc(Br)ccc4N3C2=S)cc1C(F)(F)F` (configuration not stated): 57.1%, 83.7 µM and over 200 µM.
Consider `N#Cc1ccc(N2C(=O)C3Cc4ccc(C(=O)NC5CCCCC5)cc4N3C2=S)cc1C(F)(F)F` (configuration not stated), for which the inhibition in assay [1] turned out to be 22.9%. For the same compound, the figures for the IC50 (in assay [2]; with DU-145) were 29.3 µM and 101 µM, respectively.
As for `CCCNC(=O)c1cc2c(cc1F)N1C(=S)N(c3ccc(C#N)c(C(F)(F)F)c3)C(=O)C1C2` (configuration not stated), the inhibition entry in assay [1] was “inactive”. Moreover, the concentration for half-maximal inhibition (IC50) is 11.2 µM in assay [2] and over 200 µM in the assay with DU-145.
For the compound `N#Cc1ccc(N2C(=O)C3Cc4ccc([N+](=O)[O-])cc4N3C2=S)cc1C(F)(F)F` (configuration not stated), the inhibition in assay [1] came to 58.2%. Also, the IC50 was 26.9 µM in assay [2], over 200 µM in the assay with DU-145 and 4.49 µM in assay [3].
With `N#Cc1ccc(N2C(=O)C3Cc4cc(N)ccc4N3C2=S)cc1C(F)(F)F` (configuration not stated), in assay [1], the inhibition was determined as 23.4%. Further, the IC50 is 99.1 µM in assay [2] and over 200 µM in the assay with DU-145.
With `CC(O)CNC(=O)c1ccc2c(c1)N1C(=S)N(c3ccc(C#N)c(C(F)(F)F)c3)C(=O)C1C2` (configuration not stated), the inhibition in assay [1] is 39.3%. Besides, the IC50 in assay [2] was 48.4 µM; with DU-145, over 200 µM.
Take `CNC(=O)c1ccc(N2C(=S)N(c3ccc(C#N)c(C(F)(F)F)c3)C(=O)C2(C)C)cc1F` [ENZALUTAMIDE]: the IC50 in assay [2] was 12.5 µM; in assay [3], 1.35 µM.
With `N#Cc1ccc(N2C(=O)C3Cc4ccc(Cl)cc4N3C2=S)cc1C(F)(F)F` (configuration not stated), in assay [1], the inhibition is 71.9%. Besides, the results for the IC50 (in assay [2]; in the assay with DU-145; in assay [3]) were 27.9 µM, over 200 µM and 2.33 µM, respectively. Also, the inhibition entry in assay [4] was “Active”.
As for `CCCNC(=O)c1ccc2c(c1)N1C(=S)N(c3ccc(C#N)c(C(F)(F)F)c3)C(=O)C1C2` (configuration not stated), the inhibition entry in assay [1] is “inactive”. The IC50 worked out at 90.8 µM in assay [2] and 114 µM in the assay on DU-145.
As to `CCNC(=O)c1cc2c(cc1F)N1C(=S)N(c3ccc(C#N)c(C(F)(F)F)c3)C(=O)C1C2` (configuration not stated), the inhibition entry in assay [1] is “inactive”. For the same compound, the IC50 in assay [2] worked out at 54.1 µM; with DU-145 it was 115 µM.
The compound `N#Cc1ccc(N2C(=O)C3Cc4cc(C(=O)NC5CCCCC5)c(F)cc4N3C2=S)cc1C(F)(F)F` (configuration not stated) had an inhibition in assay [1] of 55.1%. The IC50 in assay [2] was found to be 44.9 µM; in the assay on DU-145, 126 µM.
Consider `C[C@]1(O)CC[C@H]2[C@@H]3CCC4=CC(=O)CCC4=C3C=C[C@@]21C`, for which, in assay [1], the inhibition entry was “inactive”.
As to `CCCCNC(=O)c1ccc2c(c1)N1C(=S)N(c3ccc(C#N)c(C(F)(F)F)c3)C(=O)C1C2` (configuration not stated), the inhibition result in assay [1] is “inactive”. Moreover, the IC50 in assay [2] is 77.2 µM; with DU-145, 58 µM.
`CNC(=O)c1ccc2c(c1)N1C(=S)N(c3ccc(C#N)c(C(F)(F)F)c3)C(=O)C1C2` (configuration not stated) registered an inhibition in assay [1] of 13.1%. The values for the IC50 (in assay [2]; in the assay with DU-145) were 144 µM and over 200 µM, respectively.
As for `N#Cc1ccc(N2C(=O)C3Cc4ccc(I)cc4N3C2=S)cc1C(F)(F)F` (configuration not stated), the inhibition in assay [1] was 58.4%. The IC50 in assay [2] turned out to be 71.9 µM; with DU-145 it was 190 µM.
As for `CNC(=O)c1cc2c(cc1F)N1C(=S)N(c3ccc(C#N)c(C(F)(F)F)c3)C(=O)C1C2` (configuration not stated), in assay [1], the inhibition entry is “inactive”. The half-inhibitory concentration (IC50) in assay [2] was 58.2 µM; in the assay with DU-145 it was over 200 µM.
The like results for `N#Cc1ccc(N2C(=O)c3cc4ccccc4n3C2=S)cc1C(F)(F)F` were, in that order, 21.1%, 33.4 µM and 146 µM.
For the compound `N#Cc1ccc(N2C(=O)C3Cc4cc([N+](=O)[O-])ccc4N3C2=S)cc1C(F)(F)F` (configuration not stated), the inhibition in assay [1] was found to be 21.8%. Also, the values for the IC50 (in assay [2]; in the assay on DU-145) were 64.7 µM and 78.4 µM, respectively.
In turn, `CCNC(=O)c1ccc2c(c1)N1C(=S)N(c3ccc(C#N)c(C(F)(F)F)c3)C(=O)C1C2` (configuration not stated) displayed an inhibition in assay [1] of 2.1%. In addition, the IC50 in assay [2] turned out to be 35.3 µM; with DU-145 it was 105 µM.
In turn, `N#Cc1ccc(N2C(=O)C3CC4CCCCC4N3C2=S)cc1C(F)(F)F` (configuration not stated) showed an inhibition in assay [1] of 50.5%. The IC50 amounted to 36.2 µM in assay [2] and 128 µM in the assay on DU-145.
In turn, `N#Cc1ccc(N2C(=O)C3Cc4cc(Cl)ccc4N3C2=S)cc1C(F)(F)F` (configuration not stated) gave an inhibition in assay [1] of 6.7%. Also, the IC50 in assay [2] amounted to 46 µM; in the assay on DU-145, 160 µM.

(Values after ChEMBL document CHEMBL4000170 (Eur J Med Chem, 2017).)
